One may read the CC50 as the concentration giving 50% cytotoxicity. Read a high CC50 as better tolerance by the cells.

The assay concerns HCT116 MTAP-deleted cell lines. Briefly: Cell viability assay for HCT116 isogenic pair (CellTitre-Glo, 7 days). The assay is classed as cell-based. The settings on record: Homo sapiens, HCT-116, 168 h, 7 days of treatment, cell line not given. On the procedure: Control compounds were analyzed in parallel each time for quality control.
In Brief, on Day −1, a serial dilution of stock compounds in DMSO was performed using BioMek liquid handlers and dispensed using Echo acoustic dispenser into 384 well plates. Both tool compounds and sample compounds were spotted in the same plate for a dose response of PRMT5 inhibitors. Compound plates were stored as frozen until the cells were ready for seeding.
On Day 0, 100 HCT WT or HCT116 MTAP-deleted cells were seeded in compound-containing 384 well plates (50 μl per well) in RPMI 1640 media supplemented with 10% heat inactivated fetal bovine serum, Glutamax and penicillin streptomycin using EL460 liquid dispenser 5 μl cassette (BioTek, part no. 7170011). After equilibrating the plate in room temperature, the cells were incubated for 7 days inside the sealed incubator set at 37° C. with 90% humidity and 5% CO2.
On Day 7, the viability of cells was measured using a CTG assay kit (CellTitre-Glo; Promega cat no. G7573). Shortly, 40 μl per well of luminescent cell viability assay reagent were dispensed using EL460 liquid dispenser 5 μl cassette. CTG luminescence signal was measured using an EnVision plate reader (PerkinElmer) in accordance with manufacturer's instruction. The CCso values for each compound after 7 days of treatment were calculated using 4 parameter non-linear logistical curve fit.
For the cell viability assay ie CC50 shown in nM in Table 3.
Molecule `C[C@H]1CN(C(=O)c2cc3c(cn2)nc(N)c2cnn(C)c23)[C@H]2c3ccc(C(F)(F)F)cc3C[C@H]2O1` [Example Ca-13, (4-amino-1-methyl-1H-pyrazolo[4,3-c][1,7]naphthyridin-8-yl)((2S,4aS,9aR)-2-methyl-7-(trifluoromethyl)-2,3,9,9a-tetrahydroindeno[2,1-b][1,4]oxazin-4(4aH)-yl)methanone] returned a cytotoxic concentration (CC50) of 17 nM.

`CN(C(=O)c1cc2c(cn1)nc(N)c1cnn(C)c12)[C@@H]1c2ccc(C(F)(F)F)cc2[C@H]2C[C@H]21` (single isomer, unassigned) [Example Ca-27] returned a 50% cytotoxic concentration (CC50) of 88 nM.

The molecule `C[C@@H]1CN(C(=O)c2cc3c(cn2)nc(N)c2cnn(C)c23)[C@H]2c3ccc(Cl)cc3C[C@H]2O1` (single isomer, unassigned) [Example Ca-37] gave a cytotoxic concentration (CC50) of 22 nM.

As for `Cn1ncc2c3cc(C(=O)N4CC[C@H]5C[C@@H]4c4ccc(C(F)(F)F)cc4O5)ncc3nc(N)c21` [Example Ca-44, (4-amino-3-methyl-3H-pyrazolo[3,4-c][1,7]naphthyridin-8-yl)((2S,6R)-9-(trifluoromethyl)-3,4-dihydro-2H-2,6-methanobenzo[b][1,5]oxazocin-5(6H)-yl)methanone], the half-maximal cytotoxic concentration (CC50) was found to be 139 nM.

Molecule `Cn1ncc2c(N)nc3cnc(C(=O)N4CCO[C@@H]5Cc6cc(Cl)ccc6[C@@H]54)cc3c21` [Example Ca-35, (4-amino-1-methyl-1H-pyrazolo[4,3-c][1,7]naphthyridin-8-yl)((4aS,9aR)-7-chloro-2,3,9,9a-tetrahydroindeno[2,1-b][1,4]oxazin-4(4aH)-yl)methanone] registered a 50% cytotoxic concentration (CC50) of 36 nM.

In the case of `Nc1nc2cnc(C(=O)N3CCC[C@@H]4Oc5nc(C(F)(F)F)ccc5[C@@H]43)cc2c2c1COC2` (racemic) [Example Ca-32, Rac-(4-amino-1,3-dihydrofuro[3,4-c][1,7]naphthyridin-8-yl)((4aS,9bS)-7-(trifluoromethyl)-3,4,4a,9b-tetrahydrofuro[2,3-b:4,5-b′]dipyridin-1(2H)-yl)methanone], the CC50 came to 54 nM.

As for `Cn1ncc2c(N)nc3cnc(C(=O)N4CCC[C@@H]5Oc6cc(C(F)(F)F)ccc6[C@@H]54)cc3c21` [Example Ca-19, (4-amino-1-methyl-1H-pyrazolo[4,3-c][1,7]naphthyridin-8-yl)((4aS,9bS)-7-(trifluoromethyl)-3,4,4a,9b-tetrahydrobenzofuro[3,2-b]pyridin-1(2H)-yl)methanone], the CC50 came out at 6 nM.

In the case of `C[C@@H]1CC[C@@H]2Oc3cc(OC(F)(F)F)ccc3[C@@H]2N1C(=O)c1cc2c(cn1)nc(N)c1cnn(C)c12` (racemic) [Example Ca-41, (Rac)-(4-amino-1-methyl-1H-pyrazolo[4,3-c][1,7]naphthyridin-8-yl)((2R,4aS,9bS)-2-methyl-7-(trifluoromethoxy)-3,4,4a,9b-tetrahydrobenzofuro[3,2-b]pyridin-1(2H)-yl)methanone], the 50% cytotoxic concentration (CC50) stood at 30 nM.

For the molecule `Nc1nc2cnc(C(=O)N3CC[C@H]4C[C@@H]3c3ccc(OC(F)(F)F)cc3O4)cc2c2c1COC2` [Example Ca-46, (4-amino-1,3-dihydrofuro[3,4-c][1,7]naphthyridin-8-yl)((2S,6R)-9-(trifluoromethoxy)-3,4-dihydro-2H-2,6-methanobenzo[b][1,5]oxazocin-5(6H)-yl)methanone], the CC50 was determined as 25 nM.

The molecule `C[C@@H]1CN(C(=O)c2cc3c(cn2)nc(N)c2cnn(C)c23)[C@H]2c3ccc(C(F)(F)F)cc3C[C@H]2O1` [Example Ca-49, (4-amino-1-methyl-1H-pyrazolo[4,3-c][1,7]naphthyridin-8-yl)((2R,4aS,9aR)-2-methyl-7-(trifluoromethyl)-2,3,9,9a-tetrahydroindeno[2,1-b][1,4]oxazin-4(4aH)-yl)methanone] came in with a half-maximal cytotoxic concentration (CC50) of 26 nM.

For the molecule `[2H]C1([2H])CC[C@@H]2Oc3cc(C(F)(F)F)cc(F)c3[C@@H]2N1C(=O)c1cc2c3c(c(N)nc2cn1)COC3` [Example Ca-58, (4-amino-1,3-dihydrofuro[3,4-c][1,7]naphthyridin-8-yl)((4aS,9bS)-9-fluoro-7-(trifluoromethyl)-3,4,4a,9b-tetrahydrobenzofuro[3,2-b]pyridin-1(2H)-yl-2,2-d2)methanone], the cytotoxic concentration (CC50) came to 9 nM.

With `Cn1ncc2c(N)nc3cnc(C(=O)N4CCO[C@@H]5Cc6cc(C(F)(F)F)cc(F)c6[C@@H]54)cc3c21` [Example Ca-51, (4-amino-1-methyl-1H-pyrazolo[4,3-c][1,7]naphthyridin-8-yl)((4aS,9aR)-5-fluoro-7-(trifluoromethyl)-2,3,9,9a-tetrahydroindeno[2,1-b][1,4]oxazin-4(4aH)-yl)methanone], the CC50 is 195 nM.

Regarding `Cn1ncc2c(N)nc3cnc(C(=O)N4CCC[C@@H]5Oc6cc(OC(F)(F)F)ccc6[C@@H]54)cc3c21` [Example Ca-6, (4-amino-1-methyl-1H-pyrazolo[4,3-c][1,7]naphthyridin-8-yl)((4aS,9bS)-7-(trifluoromethoxy)-3,4,4a,9b-tetrahydrobenzofuro[3,2-b]pyridin-1(2H)-yl)methanone], the 50% cytotoxic concentration (CC50) came out at 8 nM.

The molecule `Nc1nc2cnc(C(=O)N3CC[C@H]4C[C@@H]3c3ccc(C(F)(F)F)nc3O4)cc2c2c1COC2` [Example Ca-18, (4-amino-1,3-dihydrofuro[3,4-c][1,7]naphthyridin-8-yl)((2S,6R)-9-(trifluoromethyl)-3,4-dihydro-2H-2,6-methanopyrido[2,3-b][1,5]oxazocin-5(6H)-yl)methanone] came in with a cytotoxic concentration (CC50) of 34 nM.

The molecule `C[C@@H]1CN(C(=O)c2cc3c(cn2)nc(N)c2cnn(C)c23)[C@H]2c3ccc(Br)cc3C[C@H]2O1` [Example Ca-50, (4-amino-1-methyl-1H-pyrazolo[4,3-c][1,7]naphthyridin-8-yl)((2R,4aS,9aR)-7-bromo-2-methyl-2,3,9,9a-tetrahydroindeno[2,1-b][1,4]oxazin-4(4aH)-yl)methanone] returned a half-maximal cytotoxic concentration (CC50) of 20 nM.

`C[C@H]1CN(C(=O)c2cc3c(cn2)nc(N)c2cnn(C)c23)[C@H]2c3ccc(Cl)cc3C[C@H]2O1` (single isomer, unassigned) [Example Ca-38] showed a CC50 of 129 nM.

Turning to `Cn1ncc2c(N)nc3cnc(C(=O)N4CC[C@@H]5C[C@H]4c4ccc(OC(F)F)cc45)cc3c21` [Example Ca-16, (4-amino-1-methyl-1H-pyrazolo[4,3-c][1,7]naphthyridin-8-yl)((1S,5R)-7-(difluoromethoxy)-1,3,4,5-tetrahydro-2H-1,5-methanobenzo[c]azepin-2-yl)methanone], half-maximal cytotoxicity (CC50) was put at 91 nM.

With `Nc1nc2cnc(C(=O)N3CCC[C@@H]4Oc5cc(C(F)(F)F)ccc5[C@@H]43)cc2c2c1COC2` (racemic) [Example Ca-1, (Rac)-(4-amino-1,3-dihydrofuro[3,4-c][1,7]naphthyridin-8-yl)((4aS,9bS)-7-(trifluoromethyl)-3,4,4a,9b-tetrahydrobenzofuro[3,2-b]pyridin-1(2H)-yl)methanone], the CC50 came out at 26 nM.

`Cn1ncc2c(N)nc3cnc(C(=O)N4CCO[C@@H]5Cc6cc(Br)c(F)cc6[C@@H]54)cc3c21` [Example Ca-29, (4-amino-1-methyl-1H-pyrazolo[4,3-c][1,7]naphthyridin-8-yl)((4aS,9aR)-7-bromo-6-fluoro-2,3,9,9a-tetrahydroindeno[2,1-b][1,4]oxazin-4(4aH)-yl)methanone] yielded a CC50 of 5 nM.

The values are drawn from patent publication US20250154172A1, “PRMT5 INHIBITORS AND USES THEREOF” (Gilead Sciences, Inc., priority 2023, published 2025).
